In patent US20080103198A1, “METHODS FOR TREATMENT OF COCHLEAR AND VESTIBULAR DISORDERS” (priority 2006, published 2008):
Where “and” joins values, the source holds several entries; their conditions need not be identical. Equal entries are not always repeated.

Columns and labels:
Format in all cases: in vivo, rat
[1] = system: Li-pilo induced SE; assay: Lithium-pilocarpine model (Example 1): Timm staining, mossy fiber sprouting
Method: At 2 months after the onset of spontaneous recurrent seizures, mossy fiber sprouting was examined on rats in the chronic period exposed to the test compound or DZP and in 3 saline-saline rats. Animals were deeply anaesthetized and perfused transcardially with saline followed by 100 ml of 1.15% (w/v) Na2S in 0.1 M phosphate buffer, and 100 ml of 4% (v/v) formaldehyde in 0.1 M phosphate buffer. Brains were removed from skull, post-fixed in 4% formaldehyde during 3-5 h and 40 μm sections were cut on a sliding vibratome and mounted on gelatin-coated slides.
The following day, sections were developed in the dark in a 26° C. solution of 50% (w/v) arabic gum (160 ml), sodium citrate buffer (30 ml), 5.7% (w/v) hydroquinone (80 ml) and 10% (w/v) silver nitrate (2.5 ml) during 40-45 min. The sections were then rinsed with tap water at 40° C. during at least 45 min, rinsed rapidly with distilled water and allowed to dry. They were dehydrated in ethanol and coverslipped.
Mossy fiber sprouting was evaluated according to criteria previously described in dorsal hippocampus (Cavazos et al., 1991, J Neurosci 11:2795-2803), which are follows: 0—no granules between the tips and crest of the DG; 1—sparse granules in the supragranular region in a patchy distribution between the tips and crest of DG; 2—more numerous granules in a continuous distribution between the tips and crest of DG; 3—prominent granules in a continuous pattern between tips and crest, with occasional patches of confluent granules between tips and crest; 4—prominent granules that form a confluent dense laminar band between tips and crest and 5—confluent dense laminar band of granules that extends into the inner molecular layer.

[2] = system: Li-pilo induced SE; assay: Lithium-pilocarpine model (Example 1): quantification of cell densities
Method: Quantification of cell densities was performed at […] after SE on 8 pilo-DZP, 8 pilo-test10, 7 pilo-test30, 7 pilo-test60, and 6 saline-saline rats. At 14 days after SE, animals were deeply anesthetized with 1.8 g/kg pentobarbital (Dolethal®, Vetoquinol, Lure, France. Brains were then removed and frozen. Serial 20 μm slices were cut in a cryostat, air-dried during several days before thionine staining.
Quantification of cell densities was performed with a 10×10 boxes 1 cm^2 microscopic grid on coronal sections according to the stereotaxic coordinates of the rat brain atlas (Paxinos and Watson, 1986, The Rat brain in Stereotaxic Coordinates, 2nd ed. Academic Press, San Diego). Cell counts were performed twice in a blind manner and were the average of at least 3 values from 2 adjacent sections in each individual animal. Counts involved only cells larger than 10 μm, smaller ones being considered as glial cells.
(§1) For the comparison of the characteristics of SE in pilo-saline and pilo-test compound animals, a non-paired Student's t-test was used. The comparison between the number of rats seizing in both groups was performed by means of a Chi square test. For neuronal damage, statistical analysis between groups was performed using ANOVA followed by a Fisher's test for multiple comparisons using the Statview software (Fisher R A, 1946a, Statistical Methods for Research Workers (10th edition) Oliver & Boyd, Edinburgh; Fisher R A, 1946b, The Design of Experiments (4th edition) Oliver & Boyd, Edinburgh) Behavioral and EEG characteristics of lithium-pitocarpine status epilepticus

[3] = system: Li-pilo induced SE; assay: Lithium-pilocarpine model of temporal lobe epilepsy (Example 1): mortality and spontaneous recurrent seizures
Text: The model induced in rats by pilocarpine associated with lithium (Li-Pilo) reproduces most of the clinical and neurophysiological features of human temporal lobe epilepsy (Turski et al., 1989, Synapse 3:154-171; Cavalheiro, 1995, Ital J Neurol Sci 16:33-37). In adult rats, the systemic administration of pilocarpine leads to status epilepticus (SE). The lethality rate reaches 30-50% during the first days. In the surviving animals, neuronal damage predominates within the hippocampal formation, the piriform and entorhinal cortices, thalamus, amygdaloid complex, neocortex and substantia nigra.
Male Wistar rats weighing 225-250 g, provided by Janvier Breeding Center (Le Genest-St-lste, France) were housed under controlled standard conditions (light/dark cycle, 7.00 a.m.-7.00 p.m. lights on), with food and water available ad libitum. All animal experimentation was performed in accordance with the rules of the European Communities Council Directive of Nov. 24, 1986 (86/609/EEC), and the French Department of Agriculture (License No 67-97). For electrode implantation, rats were anesthetized by an i.p. injection of 2.5 mg/kg diazepam (DZP, Valium, Roche, France) and […] ketamine chlorhydrate (Imalgene 1000, Rhone Merrieux, France). Four single-contact recording electrodes were placed on the skull, over the parietal cortex, two on each side.
All rats received lithium chloride (3 meq/kg, i.p., Sigma, St Louis, Mo., U.S.A.); about 20 h later, animals were placed into plexiglas boxes, in order to record baseline cortical EEG. Methylscopolamine bromide (1 mg/kg, s.c., Sigma) was administered to limit the peripheral effects of the convulsant. SE was induced by injecting pilocarpine hydrochloride (25 mg/kg, s.c., Sigma) 30 min after methyl-scopolamine. The bilateral EEG cortical activity was recorded during the whole duration of SE and behavioral changes were noted.
The effects of increasing doses of the test compound were studied on 3 groups of rats. The animals of the first group received 10 mg/kg of the test compound, i.p., 1 h after the onset of SE (pilo-test10) while the animals of groups 2 and 3 received 30 and 60 mg/kg of the test compound (pilo-test30 and pilo-test60), respectively.
Another group was injected with 2 mg/kg diazepam (DZP, i.m.) at 1 h after the onset of SE which are our standard treatment to improve animals survival after SE (pilo-DZP). The control group received saline instead of pilocarpine and the test compound (saline-saline). The pilo-test compound rats surviving SE were then injected about 10 h after the first test compound injection with a second i.p. injection of the same dose of the test compound and were maintained under a twice daily treatment with the test compound for 6 additional days. Pilo-DZP received a second injection of 1 mg/kg DZP on the day of SE at about 10 h after the first one. Thereafter, Pilo-DZP and saline-saline rats received twice daily an equivalent volume of saline.
The effects of the test compound on the EEG and on the latency to occurrence of SRS were investigated by daily video recording of the animals for 10 h per day and the recording of the electrographic activity twice a week for 8 h.
as §1

[4] = DZP, compared to saline-saline rats

CN1C(=O)CN=C(c2ccccc2)c2cc(Cl)ccc21 [DZP, diazepam, reference compound]
Timm score, upper blade of dentate gyrus (mean) ([1]; DZP, n=9): 2.8±0.8 | cell loss, CA3a [2, 4]: 54% | cell loss, CA3b [2, 4]: 31% | cell loss, dorsal entorhinal cortex layer II [2, 4]: 9% | cell loss, dorsal entorhinal cortex layers III-IV [2, 4]: 15% | cell loss, hilus of dentate gyrus [2, 4]: 73% | cell loss, hippocampus CA1 pyramidal cell layer [2, 4]: 70% and 75% | cell loss, lateral thalamic nucleus [2, 4]: 91% | cell loss, mediodorsal thalamic nucleus [2, 4]: 56% | cell loss, piriform cortex layer II [2, 4]: 53% | cell loss, piriform cortex layers III-IV [2, 4]: total | cell loss, ventral entorhinal cortex layers III-IV [2, 4]: 44% | damage, ventral entorhinal cortex layer II [2, 4]: totally preserved | mortality during the first 48 h after SE ([3]; DZP 2 mg/kg i.m. 1 h after SE onset): 23% | latency to SRS ([3]; DZP 2 mg/kg i.m., n=9): 18.2 ± 6.9 days | frequency of stage IV-V SRS ([3]; DZP, first week): 11.3 SRS per week

NC(=O)OC[C@@H](O)c1ccccc1Cl [test compound]
Timm score, upper blade of dentate gyrus (mean) ([1]; 10 mg/kg, n=7): 1.5±0.6 | Timm score, upper blade of dentate gyrus (mean) ([1]; 30 mg/kg, n=10): 2.6±1.0 | Timm score ([1]; 60 mg/kg, subgroup with early SRS occurrence, n=6): 1.8±0.6 | Timm score ([1]; 60 mg/kg, subgroup with late occurrence or absence of SRS, n=5): 1.2±0.6 | Timm score, upper blade of dentate gyrus (mean) ([1]; 60 mg/kg, whole group, n=11): 1.5±0.7 | more damage compared with pilo-DZP rats, dorsal entorhinal cortex layers III-IV ([2]; 10 mg/kg): 28% | more damage compared with pilo-DZP rats, ventral entorhinal cortex layers III-IV ([2]; 10 mg/kg): 35% | neuroprotection compared to pilo-DZP rats, ventral entorhinal cortex layers III-IV ([2]; 60 mg/kg): 31% | neuroprotection in CA3b ([2]; 60 mg/kg): significantly neuroprotective | reduction of neuronal damage recorded in pilo-DZP rats, piriform cortex layer II ([2]; 60 mg/kg): 41% | reduction of neuronal damage recorded in pilo-DZP rats, piriform cortex layers III-IV ([2]; 60 mg/kg): 44% | reduction of neuronal damage, lateral thalamic nucleus ([2]; 60 mg/kg): 65% | reduction of neuronal damage, mediodorsal thalamic nucleus ([2]; 60 mg/kg): 42% | neuroprotection in CA3a area ([2]; 10, 30, 60 mg/kg): did not afford any protection | cell loss, hilus of dentate gyrus ([2]; pilo-test compound animals (10-60 mg/kg)): 69-72% | cell loss, CA1 pyramidal layer ([2]; test compound 30 mg/kg): 35% | cell loss, CA1 pyramidal layer ([2]; test compound 60 mg/kg): 16% | latency to SRS ([3]; 10 mg/kg i.p., 7-day treatment, n=7): 15.4 ± 5.1 days | frequency of stage III SRS ([3]; 10 mg/kg, weeks 3 and 4): significantly increased over pilo-DZP values | latency to SRS ([3]; 30 mg/kg i.p., 7-day treatment, n=10): 18.9 ± 9.0 days | frequency of stage IV-V SRS ([3]; 60 mg/kg group with early SRS onset, weeks 2-4): 0.6-0.9 seizure per week | delay without becoming epileptic post-SE ([3]; 60 mg/kg, one rat): > 9 months | mean delay to epilepsy relative to the other groups of animals ([3]; 60 mg/kg, subgroup of animals): about 9 fold | latency to SRS ([3]; 60 mg/kg, subgroup with latency similar to other groups, n=7): 17.6 ± 8.7 days | latency to SRS (mean) ([3]; 60 mg/kg, subgroup with much longer delay, n=4): 149.8 ± 36.0 days | rats with delayed occurrence of spontaneous seizures ([3]; 60 mg/kg, 4 out of 11): 36% | frequency of stage IV-V SRS ([3]; 10, 30 and 60 mg/kg (early SRS onset) groups, first week): 2.3-6.1 SRS per week | mortality during the first 48 h after SE ([3]; test compound 10 mg/kg i.p. 1 h after SE onset): 26% | mortality during the first 48 h after SE ([3]; test compound 30 mg/kg i.p. 1 h after SE onset): 20% | mortality during the first 48 h after SE ([3]; test compound 60 mg/kg i.p. 1 h after SE onset): 4%
